Tests used:
[1] = system: human articular chondrocytes; experiment: Radioimmunoassay of type II collagen (coll. II) produced in tridimensional culture of human chondrocytes; type: cell-based
Text: The model used for testing the proanthocyanidols, namely the tridimensional culture of human chondrocytes allows chondrorepair to be quantified by the production of matrix substances: type II collagen, proteoglycans, and chondroresorption by the reduction in the levels of prostaglandin E2 and of OH° and O°2 type free radicals produced.
1. Tridimensional culture of human chondrocytes
The technique used has been described in detail (Bassleer et al., 1986).
Briefly, human articular chondrocytes are cultivated in DMEM (Dulbecco's Modification of Eagle's Medium--ICN--Gand, Belgium) with either Ultroser G 1% (GIBCO, Gand, Belgium) or 10% of foetal calf serum (ICN--Gand--Belgium), and 50 μg of ascorbic acid/ml added to it. The cartilage originates from the apparently normal zone of heads of human femur suffering from arthrosis, immediately after an operation carried out to insert a total hip prosthesis; it can also originate from the head of a healthy femur, but which has undergone a traumatism and has had to be replaced. This cartilage is then digested by clostridial collagenase 1 mg/ml (Boehringer-Mannheim, Germany) in a buffer (NaCl 120 mM, CaCl2 1 mM, KCl 5 mM, KH2 PO4 1 mM, NaHCO3 25 mM, glucose 2 mM and Hepes 30 mM, pH 7.4) for 24 hours. After 6 successive washings and centrifugations, the chondrocytes, isolated from their matrix, are cultured in flasks (10^6 cells/2 ml of culture medium) placed on a gyrator (10 rpm). The cultures are kept at 37° C. in an atmosphere of air 95%-CO2 5% (Bassleer et al., 1986). Cultivated under these conditions, after 4 to 5 days the chondrocytes form a tridimensional cluster in each flask. These clusters, which at first have a flocculent appearance, then tend to condense during the culture. After two weeks, their diameter is, in general, from 1 to 2 mm.
The fresh weight of the clusters increases with the duration of the culture, above all during the few first days.
3. Radioimmunoassay of type II collagen (coll. II)
The method for the radioimmunoassay of coll. II has been described in detail (Henrotin et al., 1990). The coll. II is extracted from human articular cartilage according to the technique described by Herbage et al. (1977). The antiserum against coll. II was obtained from rabbits according to the technique of Vaitukaitis et al. (1971).
The assay is carried out by sequential saturation. In the first instance, the radioimmunoassay is carried out in a 0.3 ml volume consisting of 0.2 ml of incubation buffer (PBS-50 mM PO4, 300 mM NaCl, 5 g/l BSA (W/V), 6.7 mM sodium azide, pH 7.4) containing the reference coll. II (0.5 to 500 ng) or the sample to be assayed and 0.1 ml of anti-coll. II antiserum from guinea pigs diluted to 1/5000 (24 hours at 4° C.). In the second instance, 0.1 ml of ^125 I-coll. II tracer labelled according to the iodogenic technique (Salacynski et al., 1979 and diluted so as to obtain 20,000 cpm/0.1 ml) is added. After 24 hours at 4° C., the collagen-antibody complexes are separated from the free radioactive coll. II by the double antibody system (Franchimont et al. 1983). Sequential saturation gives a sensitivity of 3 ng/tube. The accuracy of the method is 10%. The coefficients of the intra- and inter assay variation are 10% and 20% respectively.
The assay is specific to human articular type II collagen.
No cross reaction is obtained with bovine collagen of type I, III or IV.
The culture media are stored at -20° C. in the presence of enzymatic inhibitors (Oegema et al., 1975). These media are assayed by the radio immunological method without any treatment beforehand. The chondrocyte clusters are washed and dissociated with ultrasonics according to the method described for the assay of the PGs. After centrifugation (1500 rpm, 10 minutes), the residue is extracted using 500 mM acetic acid under agitation for 24 hours at 4° C. The supernatant of the homogenate and the extract of the residue are mixed together and assayed after equilibration at pH 7.4 using 4M NaOH.
The recovery of coll. […]

[2] = Production of OH° hydroxyl radicals (gamma irradiation, KMB substrate, ethylene by gas chromatography); type: biochemical; details: for % inhibition of the production of hydroxyl radicals: Substrate: KMB, relative to the controls
Protocol: 8. Production of OH° hydroxyl radicals
The products are dissolved in 10 ml flasks at the required concentration in phosphate buffer: 6.6.10^-2 M, pH 7.4 in the presence of alpha keto methiolbutyric acid (10^-3 M: KMB). After the flasks have been hermetically sealed, the samples are irradiated with gamma rays provided by a ^137 Cs source.
The OH° radicals produced by the gamma radiation react with the KMB to produce the ethylene detected by a gas chromatograph. The height of the ethylene peak is proportional to the quantity of free radicals formed in the medium (Weis et al., 1978).

Question: For `Oc1cc(O)c2c(c1)O[C@H](c1cc(O)c(O)c(O)c1)[C@@H](O)[C@@H]2c1c(O)cc(O)c2c1O[C@H](c1cc(O)c(O)c(O)c1)[C@@H](O)[C@@H]2c1c(O)cc(O)c2c1O[C@H](c1cc(O)c(O)c(O)c1)[C@@H](O)C2` [Substance Ic, GC-(4 alpha→8) GC-(4 a→8)-GC], which “Average concentrations (m ± SD) of type II collagen in the clusters of chondrocytes at the end of 12 days of culture” value (from here on “Average concentrations (m ± SD)”) ([1]; 1% Ultroser G, 1 μg/ml) is on record?
Answer: 81 ± 6 ng per μg of DNA

Question: What about the “Collagen II in the clusters over 12 days, effect in words” value ([1]; 1% Ultroser G, 1 μg/ml) of the same compound?
Answer: stimulant

Question: What about the “Cumulative release of coll.II over 12 days, Abs” value ([1]; 1% Ultroser G, 1 μg/ml) of the same compound?
Answer: 256 ng/μg DNA/12 days

Question: And the “Type II collagen released in the culture medium, effect in words” value ([1]; 1% Ultroser G, 1 μg/ml)?
Answer: significant effect

Question: And the “Average concentrations (m ± SD)” value ([1]; 1% Ultroser G, 10 μg/ml)?
Answer: 94 ± 7 ng per μg of DNA

Question: What about the “Cumulative release of coll.II over 12 days, Abs” value ([1]; 1% Ultroser G, 10 μg/ml) of the same compound?
Answer: 292 ng/μg DNA/12 days

Question: What about the “Average concentrations (m ± SD)” value ([1]; 1% Ultroser G, 100 μg/ml) of the same compound?
Answer: 121 ± 13 ng per μg of DNA

Question: What about the “Cumulative release of coll.II over 12 days, Abs” value ([1]; 1% Ultroser G, 100 μg/ml) of the same compound?
Answer: 337 ng/μg DNA/12 days

Question: What about the “Coll. II released in the culture medium” value ([1]; 1% Ultroser G, culture time 0-4 days, 1 μg/ml) of the same compound?
Answer: 149.4 ± 8.7 ng/μg DNA/96 h

Question: And the “Coll. II released in the culture medium” value ([1]; 1% Ultroser G, culture time 0-4 days, 10 μg/ml)?
Answer: 162 ± 11 ng/μg DNA/96 h

Question: And the “Coll. II released in the culture medium” value ([1]; 1% Ultroser G, culture time 0-4 days, 100 μg/ml)?
Answer: 182 ± 5.6 ng/μg DNA/96 h

Question: What about the “Coll. II released in the culture medium” value ([1]; 1% Ultroser G, culture time 0-8 days (so in the source), 1 μg/ml) of the same compound?
Answer: 65.8 ± 7.4 ng/μg DNA/96 h

Question: And the “Coll. II released in the culture medium” value ([1]; 1% Ultroser G, culture time 0-8 days (so in the source), 10 μg/ml)?
Answer: 70.5 ± 7.1 ng/μg DNA/96 h

Question: What about the “Coll. II released in the culture medium” value ([1]; 1% Ultroser G, culture time 0-8 days (so in the source), 100 μg/ml) of the same compound?
Answer: 93.8 ± 10.5 ng/μg DNA/96 h

Question: What about the “Coll. II released in the culture medium” value ([1]; 1% Ultroser G, culture time 0-12 days (so in the source), 1 μg/ml) of the same compound?
Answer: 41.2 ± 4.6 ng/μg DNA/96 h

Question: And the “Coll. II released in the culture medium” value ([1]; 1% Ultroser G, culture time 0-12 days (so in the source), 10 μg/ml)?
Answer: 50.6 ± 4.2 ng/μg DNA/96 h

Question: And the “Coll. II released in the culture medium” value ([1]; 1% Ultroser G, culture time 0-12 days (so in the source), 100 μg/ml)?
Answer: 61.1 ± 5.2 ng/μg DNA/96 h

Question: What about the activity at 1 µg/mL ([1]; Homo sapiens, Chondrocyte, 288 h, 1% Ultroser G, 1 μg/ml, control = 100, read-out: Cumulative release of coll.II over 12 days, %) of the same compound?
Answer: 134%

Question: What about the activity at 10 µg/mL ([1]; Homo sapiens, Chondrocyte, 288 h, 1% Ultroser G, 10 μg/ml, control = 100, read-out: Cumulative release of coll.II over 12 days, %) of the same compound?
Answer: 153%

Question: What about the activity at 100 µg/mL ([1]; Homo sapiens, Chondrocyte, 288 h, 1% Ultroser G, 100 μg/ml, control = 100, read-out: Cumulative release of coll.II over 12 days, %) of the same compound?
Answer: 176%

Question: What about the “Type II collagen in the culture media, effect in words” value ([1]; foetal calf serum, 10 and 100 μg/ml) of the same compound?
Answer: increases

Question: What about the “Coll. II released in the culture medium” value ([1]; foetal calf serum, Table 18, 0-4 days, 10 μg/ml) of the same compound?
Answer: 44.1 ± 6.98 ng/μg DNA/96 H

Question: And the “Coll. II released in the culture medium” value ([1]; foetal calf serum, Table 18, 0-4 days, 100 μg/ml)?
Answer: 70.7 ± 10.3 ng/μg DNA/96 H

Question: And the “Coll. II released in the culture medium” value ([1]; foetal calf serum, Table 18, 4-8 days, 10 μg/ml)?
Answer: 33.5 ± 3.71 ng/μg DNA/96 H

Question: What about the “Coll. II released in the culture medium” value ([1]; foetal calf serum, Table 18, 4-8 days, 100 μg/ml) of the same compound?
Answer: 41.7 ng/μg DNA/96 H

Question: What about the “Coll. II released in the culture medium” value ([1]; foetal calf serum, Table 19, 0-4 days, 10 μg/ml) of the same compound?
Answer: 37.9 ± 5.47 ng/μg DNA/96 H

Question: What about the “Coll. II released in the culture medium” value ([1]; foetal calf serum, Table 19, 0-4 days, 100 μg/ml) of the same compound?
Answer: 53.2 ± 4.21 ng/μg DNA/96 H

Question: What about the “Coll. II released in the culture medium” value ([1]; foetal calf serum, Table 19, 4-8 days, 10 μg/ml) of the same compound?
Answer: 23.3 ± 2.11 ng/μg DNA/96 H

Question: What about the “Coll. II released in the culture medium” value ([1]; foetal calf serum, Table 19, 4-8 days, 100 μg/ml) of the same compound?
Answer: 33.5 ng/μg DNA/96 H

Question: And the “Coll. II in the clusters” value ([1]; foetal calf serum, experiment 397, 4-8 days, 10 μg/ml)?
Answer: 85.9 ± 14.45 ng/μg DNA

Question: What about the “Coll. II in the clusters” value ([1]; foetal calf serum, experiment 397, 4-8 days, 100 μg/ml) of the same compound?
Answer: 109.8 ng/μg DNA

Question: And the “Collagen II in the clusters, effect in words” value ([1]; foetal calf serum, experiment 397, 10 and 100 μg/ml)?
Answer: An increase in collagen II is observed

Question: And the “% inhibition of the production of hydroxyl radicals” value (from here on “% inhibition”) ([2]; 10^-3 M)?
Answer: 74%

Question: What about the “% inhibition” value ([2]; 10^-4 M) of the same compound?
Answer: 39%

Question: And the “% inhibition” value ([2]; 10^-5 M)?
Answer: 20%

Question: And the “Production of free radicals from KMB, effect in words” value ([2]; Table 22)?
Answer: significantly inhibits
